Measured values reported in US8697385B1, “Protein controlling synthesis of collagen and associated methods” (Florida State University Research Foundation, Inc., priority 2009, dated 2014).

B1: HA-tagged full-size LARP6 (other)
chain: MAQSGGEARPGPKTAVQIRVAIQEAEDVDELEDEEEGAETRGAGDPARYLSPGWGSASEEEPSRGHSGTTASGGENEREDLEQEWKPPDEELIKKLVDQIEFYFSDENLEKDAFLLKHVRRNKLGYVSVKLLTSFKKVKHLTRDWRTTAHALKYSVVLELNEDHRKVRRTTPVPLFPNENLPSKMLLVYDLYLSPKLWALATPQKNGRVQEKVMEHLLKLFGTFGVISSVRILKPGRELPPDIRRISSRYSQVGTQECAIVEFEEVEAAIKAHEFMITESQGKENMKAVLIGMKPPKKKPAKDKNHDEEPTASIHLNKSLNKRVEELQYMGDESSANSSSDPESNPTSPMAGRRHAATNKLSPSGHQNLFLSPNASPCTSPWSSPLAQRKGVSRKSPLAEEGRLNCSTSPEIFRKCMDYSSDSSVTPSGSPWVRRRRQAEMGTQEKSPGTSPLLSRKMQTADGLPVGVLRLPRGPDNTRGFHGHERSRACV
notes: Expressed from adenovirus in human lung fibroblasts and immunoprecipitated from cell lysate with anti-HA antibody; also called HA-tagged LARP6; not shown: HA tag
B2: HA-tagged RBMS3 (other, UniProt Q6XE24 1-437, looked up)
chain: MGKRLDQPQMYPQYTYYYPHYLQTKQSYAPAPHPMAPPSPSTNSSSNNSSNNSSGEQLSKTNLYIRGLPPGTTDQDLIKLCQPYGKIVSTKAILDKNTNQCKGYGFVDFDSPAAAQKAVASLKANGVQAQMAKQQEQDPTNLYISNLPISMDEQELENMLKPFGHVISTRILRDANGVSRGVGFARMESTEKCEVVIQHFNGKYLKTPPGIPAPSEPLLCKFADGGQKKRQNQSKYTQNGRPWPREGEAGMALTYDPTAAIQNGFYSSPYSIATNRMIPQTSITPFIAASPVSTYQVQSTSWMPHPPYVMQPTGAVITPTMDHPMSMQPANMMGPLTQQMNHLSLGTTGTIQSQDRIMILHQLLCQYMTAAAPMQGTYIPQYTPVPPTAVSIEGVVADTSPQTVAPSSQDTSGQQQQIAVDTSNEHAPAYSYQQSKP
notes: Control protein expressed in human lung fibroblasts; not shown: HA tag
B3: HA-tagged LARP6 lacking the C-terminal domain (ΔC-LARP6) (other)
chain: MAQSGGEARPGPKTAVQIRVAIQEAEDVDELEDEEEGAETRGAGDPARYLSPGWGSASEEEPSRGHSGTTASGGENEREDLEQEWKPPDEELIKKLVDQIEFYFSDENLEKDAFLLKHVRRNKLGYVSVKLLTSFKKVKHLTRDWRTTAHALKYSVVLELNEDHRKVRRTTPVPLFPNENLPSKMLLVYDLYLSPKLWALATPQKNGRVQEKVMEHLLKLFGTFGVISSVRILKPGRELPPDIRRISSRYSQVGTQECAIVEFEEVEAAIKAHEFMITESQGKENMKAVLIGMKPPKKKP
notes: Expressed in human lung fibroblasts; also called HA-tagged ΔC-LARP6; C-terminal deletion mutant of LARP6; not shown: HA tag

Experiments:
[1] = system: primary scleroderma skin fibroblasts; test: Western blot analysis of cellular and medium collagen polypeptides, scleroderma fibroblasts; assay type: cell-based, human; settings: 16 h, ML-7 40 μM, blebbistatin 100 μM; for secretion of collagen α1(I) polypeptide into the medium / secretion of collagen α2(I) polypeptide into the medium / secretion/expression of fibronectin: cytochalasin B 20 μM
Method: (§1) ML-7, blebbistatin, cytochalasin B, puromycin, and cycloheximide were purchased from Sigma. ML-7 was used at 40 μM, blebbistatin was used at 100 μM, and cytochalasin B was used at 20 μM. Cells were incubated with the drugs for 16 h before analysis. Puromycin (200 μg/ml) and cycloheximide (100 μg/ml) were added to the cells for 2 h. Human lung fibroblasts have been described previously.16 Scleroderma fibroblasts were purchased from the European Collection of Cell Cultures (cell line BM0070) and derived from the skin of a scleroderma patient. MEFs were derived from knock-in mice in which the 5′SL of the collagen α1(I) gene has been mutated (Parsons et al., submitted). Several independent cell isolates were used throughout the study. All cells were cultured in Dulbecco's modified Eagle's medium supplemented with 10% fetal bovine serum for up to 10 passages. Plasmid constructs and adenovirus preparation. The HA-tagged LARP6 clone and the deletion mutants have been described previously.^16 Adenoviruses were constructed by recloning of the constructs into the pAdCMVTRACK vector, followed by recombination with the pAdEasy vector and amplification, as described previously.^48 Expression of each construct was verified by Western blot analysis. The viruses made express both the full-size test protein and the green fluorescent protein (GFP), which is encoded by an independent transcription unit.^48 Expression of GFP served as control for viral transduction. RT-PCR analysis Total cellular RNA was isolated using an RNA isolation kit (Sigma). RT-PCRs were performed with 100 ng of total RNA or using rTth reverse transcriptase (Boca Scientific, Boca Raton, Fla.). [^32P]dCTP was included in the PCR step to label the products, which were resolved on sequencing gels, as described previously.^8,31,49,50 When RNA from polysomal fractions was analyzed, an equal aliquot of each fraction was used. The number of cycles was adjusted to within the linear range of the reaction. The primers used for RT-PCR were as follows: h-collagen α1(I), 5′ primer […] (SEQ ID NO:3) and 3′ primer […] (SEQ ID NO:4); h-collagen α2(I), 5′ primer […] (SEQ ID NO:5) and 3′ primer […] (SEQ ID NO:6).
(§2) Protein concentration was estimated by the Bradford assay, with bovine serum albumin as standard.^51 Western blot analyses of cellular proteins were performed using 50 μg of protein. For Western blot analysis of secreted proteins, equal numbers of cells were seeded, serum-free medium was added to the cells, and incubation continued for 3 h. The medium was collected, and an aliquot was analyzed directly by Western blot analysis. Use of serum free medium in collecting secreted proteins is essential because fetal calf serum contains substantial amounts of collagen and fibronectin.^15,31 For immunostaining, cells were seeded onto glass coverslips. After treatment, the cells were fixed with 4% paraformaldehyde for 30 min at room temperature and permeabilized with 0.5% Triton X-100 in phosphatebuffered saline (PBS) for 10 min. After the cells had been blocked with 10% goat serum/5% bovine serum albumin in PBS for 1 h at room temperature, they were incubated with primary antibody overnight at 4° C., washed, and visualized with AlexaFluor594-conjugated or Cy-2-conjugated secondary antibodies. The cells were mounted using VECTASHIELD mounting medium containing […], 6-diamidino-2-phenylindole (Vector Laboratories), and images were taken by a Leica TCS SP2 AOBS laser confocal microscope equipped with a Chameleon Ti: Sapphire multiphoton laser. Optical sections were processed with LCSLite software.
(§3) To assess the role of nonmuscle myosin in collagen synthesis, we disrupted nonmuscle myosin filaments in two different cell types: primary human lung fibroblasts and primary scleroderma skin fibroblasts. These cells are responsible for lung and skin fibrosis. […]

[2] = system: human lung fibroblasts; test: Western blot analysis of cellular and medium collagen polypeptides, lung fibroblasts; assay type: cell-based; settings: 16 h, ML-7 40 μM, blebbistatin 100 μM, vs control cells; for secretion of collagen α1(I) polypeptide into the medium / secretion of collagen α2(I) polypeptide into the medium / secretion/expression of fibronectin: cytochalasin B 20 μM
Method: as §1, §2, §3

[3] = system: nonmuscle myosin IIB; test: Immunoprecipitation of nonmuscle myosin IIB and RT-PCR of collagen mRNAs; assay type: cell-based, human; settings: lung fibroblasts; cycloheximide 100 μg/ml or puromycin 200 μg/ml, 2 h
Method: ML-7, blebbistatin, cytochalasin B, puromycin, and cycloheximide were purchased from Sigma. ML-7 was used at 40 μM, blebbistatin was used at 100 μM, and cytochalasin B was used at 20 μM. Cells were incubated with the drugs for 16 h before analysis. Puromycin (200 μg/ml) and cycloheximide (100 μg/ml) were added to the cells for 2 h. Human lung fibroblasts have been described previously.16 Scleroderma fibroblasts were purchased from the European Collection of Cell Cultures (cell line BM0070) and derived from the skin of a scleroderma patient. MEFs were derived from knock-in mice in which the 5′SL of the collagen α1(I) gene has been mutated (Parsons et al., submitted). […] [^32P]dCTP was included in the PCR step to label the products, which were resolved on sequencing gels, as described previously.^8,31,49,50 When RNA from polysomal fractions was analyzed, an equal aliquot of each fraction was used. […]
One of the roles of nonmuscle myosin filaments may be to present collagen mRNAs to ribosomes. Therefore, we assessed if the association of collagen mRNAs with nonmuscle myosin is dependent on intact polysomes. […] We then immunoprecipitated nonmuscle myosin from lung fibroblasts treated with cycloheximide or puromycin and analyzed if this can change the pull-down of collagen mRNAs. As control, the association with vimentin was analyzed in the same samples (FIG. 9b). […]

[4] = target: T1, fibronectin (human, UniProt P02751 32-2477, limits assumed); test: co-immunoprecipitation with anti-HA antibody from human lung fibroblasts, Western blot with anti-fibronectin
T1 construct: Specificity control in the co-immunoprecipitations, detected with anti-fibronectin antibody

[5] = target: T2, nonmuscle myosin IIB (human, UniProt P35580 1-1976, limits assumed); test: co-immunoprecipitation with anti-HA antibody from human lung fibroblasts, Western blot with anti-myosin IIB
T2 construct: Endogenous protein in lysate of human lung fibroblasts, detected by Western blot with anti-myosin IIB (anti-MYH10) antibody; also called MYO IIB; MYH10
T2 sequence (P35580 whole entry): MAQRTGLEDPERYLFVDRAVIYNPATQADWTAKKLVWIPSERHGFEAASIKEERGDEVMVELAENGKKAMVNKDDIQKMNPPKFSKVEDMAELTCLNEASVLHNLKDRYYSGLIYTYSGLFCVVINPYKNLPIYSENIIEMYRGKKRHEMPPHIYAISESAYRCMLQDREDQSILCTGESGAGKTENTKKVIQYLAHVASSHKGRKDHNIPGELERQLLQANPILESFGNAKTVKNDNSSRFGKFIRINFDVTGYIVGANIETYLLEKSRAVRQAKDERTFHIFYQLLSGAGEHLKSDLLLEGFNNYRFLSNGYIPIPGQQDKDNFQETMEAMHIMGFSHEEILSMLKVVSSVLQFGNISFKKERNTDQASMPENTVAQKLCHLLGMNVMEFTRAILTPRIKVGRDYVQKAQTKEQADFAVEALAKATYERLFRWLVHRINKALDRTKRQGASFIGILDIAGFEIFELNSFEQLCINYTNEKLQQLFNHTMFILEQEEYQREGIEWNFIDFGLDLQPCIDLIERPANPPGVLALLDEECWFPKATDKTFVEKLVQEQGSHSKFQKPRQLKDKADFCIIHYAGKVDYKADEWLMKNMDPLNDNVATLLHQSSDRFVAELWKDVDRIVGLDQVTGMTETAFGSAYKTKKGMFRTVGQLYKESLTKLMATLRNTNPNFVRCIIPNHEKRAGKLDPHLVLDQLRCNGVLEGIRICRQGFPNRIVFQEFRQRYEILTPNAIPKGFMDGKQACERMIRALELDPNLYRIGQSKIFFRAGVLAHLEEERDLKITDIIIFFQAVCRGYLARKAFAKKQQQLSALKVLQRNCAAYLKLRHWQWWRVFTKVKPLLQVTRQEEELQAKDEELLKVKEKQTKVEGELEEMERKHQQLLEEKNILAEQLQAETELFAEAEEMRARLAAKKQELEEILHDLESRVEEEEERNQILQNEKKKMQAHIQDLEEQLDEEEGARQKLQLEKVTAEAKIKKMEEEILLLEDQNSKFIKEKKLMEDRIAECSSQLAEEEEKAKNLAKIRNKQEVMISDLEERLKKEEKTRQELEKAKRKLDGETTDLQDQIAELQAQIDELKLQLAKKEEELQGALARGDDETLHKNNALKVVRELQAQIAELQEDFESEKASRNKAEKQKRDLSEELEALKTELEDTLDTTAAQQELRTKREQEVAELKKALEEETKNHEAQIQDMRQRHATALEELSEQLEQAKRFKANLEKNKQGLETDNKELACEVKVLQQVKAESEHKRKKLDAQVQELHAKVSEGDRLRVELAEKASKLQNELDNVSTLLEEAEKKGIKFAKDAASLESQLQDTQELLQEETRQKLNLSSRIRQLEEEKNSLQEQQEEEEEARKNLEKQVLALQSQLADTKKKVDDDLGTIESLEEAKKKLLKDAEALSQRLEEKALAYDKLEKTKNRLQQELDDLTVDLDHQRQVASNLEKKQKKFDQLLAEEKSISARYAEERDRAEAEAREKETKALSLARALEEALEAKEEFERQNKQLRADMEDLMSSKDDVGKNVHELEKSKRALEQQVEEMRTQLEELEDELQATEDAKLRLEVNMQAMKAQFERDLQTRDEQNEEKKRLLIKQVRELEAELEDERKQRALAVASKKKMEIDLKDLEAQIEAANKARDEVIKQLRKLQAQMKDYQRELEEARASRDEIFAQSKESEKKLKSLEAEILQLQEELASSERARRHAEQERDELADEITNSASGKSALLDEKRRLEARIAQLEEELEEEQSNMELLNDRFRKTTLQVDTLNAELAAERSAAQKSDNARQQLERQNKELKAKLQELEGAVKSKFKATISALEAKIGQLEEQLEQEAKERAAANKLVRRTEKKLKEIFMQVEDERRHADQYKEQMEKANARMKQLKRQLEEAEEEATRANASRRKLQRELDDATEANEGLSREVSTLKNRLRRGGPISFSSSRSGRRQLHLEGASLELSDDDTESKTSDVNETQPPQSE
Method: (§4) HA, Western blot analysis using anti-HA antibody as control for immunoprecipitation efficiency of the tagged proteins. (c) Experiment as in (b), but Western blot analysis was performed using anti-myosin IIA antibody (MYO IIA). […] Experiment as in (b), but the lysate was treated with Rnase. A prior to immunoprecipitation (lane 1) or was not treated (lanes 2 and 3). The immunoprecipitate was analyzed with anti-myosin IIB antibody (MYO IIB), anti-fibronectin antibody (FIB; as control for specificity), and anti-HA antibody (HA; as control for precipitation efficiency).

[6] = target: T3, nonmuscle myosin IIA (human, UniProt P35579 2-1960); test: co-immunoprecipitation with anti-HA antibody from human lung fibroblasts, Western blot with anti-myosin IIA
T3 construct: Endogenous protein in lysate of human lung fibroblasts, detected with anti-myosin IIA antibody; also called MYO IIA
T3 sequence (P35579 2-1960 limits assumed): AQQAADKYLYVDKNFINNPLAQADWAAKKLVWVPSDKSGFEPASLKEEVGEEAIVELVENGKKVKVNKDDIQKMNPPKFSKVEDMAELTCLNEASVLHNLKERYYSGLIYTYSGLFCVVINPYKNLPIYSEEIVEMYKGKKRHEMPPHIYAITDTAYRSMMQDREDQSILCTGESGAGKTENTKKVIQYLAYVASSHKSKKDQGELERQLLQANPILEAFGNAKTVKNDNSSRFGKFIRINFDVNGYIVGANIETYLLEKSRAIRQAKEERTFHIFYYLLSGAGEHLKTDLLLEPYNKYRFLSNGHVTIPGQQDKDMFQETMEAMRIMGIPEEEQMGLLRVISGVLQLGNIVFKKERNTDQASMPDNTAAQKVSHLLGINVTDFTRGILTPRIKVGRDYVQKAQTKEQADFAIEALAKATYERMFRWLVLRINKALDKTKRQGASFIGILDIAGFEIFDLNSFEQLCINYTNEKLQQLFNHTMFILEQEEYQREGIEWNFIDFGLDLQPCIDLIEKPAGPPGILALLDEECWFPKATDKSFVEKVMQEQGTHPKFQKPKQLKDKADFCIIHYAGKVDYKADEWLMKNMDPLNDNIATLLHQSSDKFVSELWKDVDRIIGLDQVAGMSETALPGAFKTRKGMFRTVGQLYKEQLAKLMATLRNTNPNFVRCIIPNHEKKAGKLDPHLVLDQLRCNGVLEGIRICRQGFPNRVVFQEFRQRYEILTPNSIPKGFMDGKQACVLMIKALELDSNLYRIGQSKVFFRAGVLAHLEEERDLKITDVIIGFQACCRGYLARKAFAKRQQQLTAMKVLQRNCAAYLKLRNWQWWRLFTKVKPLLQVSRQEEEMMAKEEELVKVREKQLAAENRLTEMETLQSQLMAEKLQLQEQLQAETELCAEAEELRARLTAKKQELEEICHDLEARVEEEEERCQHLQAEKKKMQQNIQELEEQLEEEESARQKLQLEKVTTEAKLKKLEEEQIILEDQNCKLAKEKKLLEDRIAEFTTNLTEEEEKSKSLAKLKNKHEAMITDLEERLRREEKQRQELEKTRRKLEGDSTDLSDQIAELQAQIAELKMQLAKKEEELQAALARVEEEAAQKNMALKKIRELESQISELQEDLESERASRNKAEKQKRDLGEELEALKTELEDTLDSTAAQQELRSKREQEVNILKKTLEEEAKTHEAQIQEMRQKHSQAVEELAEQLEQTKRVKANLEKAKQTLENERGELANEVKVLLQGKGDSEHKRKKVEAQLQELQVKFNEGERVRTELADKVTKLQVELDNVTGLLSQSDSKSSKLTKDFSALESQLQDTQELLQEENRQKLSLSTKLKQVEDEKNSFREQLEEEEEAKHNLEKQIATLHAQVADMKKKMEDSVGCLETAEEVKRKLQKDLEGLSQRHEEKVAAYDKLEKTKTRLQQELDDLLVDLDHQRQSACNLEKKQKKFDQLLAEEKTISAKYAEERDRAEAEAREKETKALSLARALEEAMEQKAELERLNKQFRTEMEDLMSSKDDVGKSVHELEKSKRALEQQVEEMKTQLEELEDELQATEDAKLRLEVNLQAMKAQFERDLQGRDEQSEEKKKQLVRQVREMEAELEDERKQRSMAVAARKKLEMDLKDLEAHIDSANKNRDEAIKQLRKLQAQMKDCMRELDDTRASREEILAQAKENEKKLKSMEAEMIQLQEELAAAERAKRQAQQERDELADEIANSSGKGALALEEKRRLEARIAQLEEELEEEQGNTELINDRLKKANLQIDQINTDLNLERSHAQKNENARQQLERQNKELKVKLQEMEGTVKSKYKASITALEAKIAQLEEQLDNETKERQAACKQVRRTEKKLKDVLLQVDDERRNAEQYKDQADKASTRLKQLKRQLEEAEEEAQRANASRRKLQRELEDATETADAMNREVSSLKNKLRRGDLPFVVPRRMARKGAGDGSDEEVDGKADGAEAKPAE
Method: as §4

Molecule	secretion of collagen α1(I) polypeptide into the medium [1]	secretion of collagen α2(I) polypeptide into the medium [1]	secretion/expression of fibronectin [1]	secretion of collagen α1(I) polypeptide into the medium [2]	secretion of collagen α2(I) polypeptide into the medium [2]	secretion/expression of fibronectin [2]	binding result [5]	further results
C=C1[C@@H](C)[C@H]2[C@H](Cc3ccccc3)NC(=O)[C@]23OC(=O)/C=C/[C@H](O)CCC[C@@H](C)C/C=C/[C@H]3[C@@H]1O [cytochalasin B]	no effect	small effect	small effect	diminished	diminished	had an effect	–	–
Cc1ccc2c(c1)C(=O)C1(O)CCN(c3ccccc3)C1=N2 (centres unmarked) [blebbistatin]	minimally affecting	abolished	small effect	minimally affecting	reduced	small effect	–	intracellular level of collagen α1(I) polypeptide [1]: unchanged; intracellular level of collagen α2(I) polypeptide [1]: unchanged; intracellular level of collagen α1(I) and α2(I) polypeptides [2]: unchanged
C[C@@H]1C[C@@H]([C@H](O)CC2CC(=O)NC(=O)C2)C(=O)[C@@H](C)C1 [cycloheximide]	–	–	–	–	–	–	–	collagen α1(I) and α2(I) mRNAs pulled down with nonmuscle myosin IIB [3]: both collagen mRNAs were pulled down
B1	–	–	–	–	–	–	–	binding result [4]: no binding
B2	–	–	–	–	–	–	no binding	–
B3	–	–	–	–	–	–	no binding	binding result [6]: no binding
